# Experimental data as given in patent publication US20060089378A1 (priority 2004, published 2006).
# Read-outs that look alike come from different tables or passages of the source.
# Tests used:
# Cannabinoid CB2 Receptor = target: T1, Cannabinoid CB2 Receptor (Homo sapiens, UniProt P34972); assay: Binding assay for CB2 agonists or inverse agonists (radioligand competition, membranes of transfected SK-N-MC cells); conditions: read-out: Cannabinoid CB2 Receptor Binding percent inhibition
# T1 construct: expressed in transfected cells
# T1 sequence (P34972 whole entry): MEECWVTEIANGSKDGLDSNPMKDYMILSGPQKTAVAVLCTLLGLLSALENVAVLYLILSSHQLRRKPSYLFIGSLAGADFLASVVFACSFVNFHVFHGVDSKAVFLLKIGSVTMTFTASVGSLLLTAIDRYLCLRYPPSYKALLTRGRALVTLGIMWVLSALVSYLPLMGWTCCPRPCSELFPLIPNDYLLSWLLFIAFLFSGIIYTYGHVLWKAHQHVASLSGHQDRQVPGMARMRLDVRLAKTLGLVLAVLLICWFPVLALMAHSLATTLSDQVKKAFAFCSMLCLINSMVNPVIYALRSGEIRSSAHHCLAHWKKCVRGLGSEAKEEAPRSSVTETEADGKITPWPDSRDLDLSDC
# Cannabinoid CB1 Receptor = target: T2, Cannabinoid CB1 Receptor (Homo sapiens, UniProt P21554); assay: Binding assay for CB1 agonists or inverse agonists (radioligand competition, membranes of transfected SK-N-MC cells)
# T2 construct: expressed in transfected cells
# T2 sequence (P21554 whole entry): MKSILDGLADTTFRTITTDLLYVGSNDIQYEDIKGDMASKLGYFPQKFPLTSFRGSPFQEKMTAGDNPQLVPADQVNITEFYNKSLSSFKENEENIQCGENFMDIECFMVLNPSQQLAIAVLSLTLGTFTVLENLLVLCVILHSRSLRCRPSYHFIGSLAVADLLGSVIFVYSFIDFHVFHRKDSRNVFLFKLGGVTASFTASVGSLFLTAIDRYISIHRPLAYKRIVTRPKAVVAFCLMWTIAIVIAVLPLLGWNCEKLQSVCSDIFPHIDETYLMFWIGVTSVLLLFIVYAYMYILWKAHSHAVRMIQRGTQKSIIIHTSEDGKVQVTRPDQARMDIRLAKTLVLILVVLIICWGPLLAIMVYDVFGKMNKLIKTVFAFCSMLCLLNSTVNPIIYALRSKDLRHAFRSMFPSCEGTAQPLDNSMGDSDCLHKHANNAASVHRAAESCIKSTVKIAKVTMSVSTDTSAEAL
# CB1 receptor (human) = CB1 receptor (human) (Homo sapiens, UniProt P21554); assay: cell-based
# Chain of CB1 receptor (human) (P21554 whole entry): as above
Compound,inhibition at 0.2 µM (Cannabinoid CB2 Receptor),IC50 (Cannabinoid CB1 Receptor),EC50 (CB1 receptor (human)),"inhibition at 0.2 µM (Cannabinoid CB2 Receptor; test concentration of 0.2 μM, compounds without an IC50 binding value)"
"COC(=O)N1C/C(=C\c2ccc(F)cc2)c2c(c(C(=O)NN3CCCCC3)nn2-c2ccc(Cl)cc2Cl)C1 [Cpd 11, (7E)-1-(2,4-dichloro-phenyl)-7-(4-fluoro-benzylidene)-3-(piperidin-1-ylcarbamoyl)-1,4,6,7-tetrahydro-pyrazolo[4,3-c]pyridine-5-carboxylic acid methyl ester]",15%,0.05 µM,0.04 µM,
"O=C(NN1CCCCC1)c1nn(-c2ccc(Cl)cc2Cl)c2c1CNC/C2=C\c1ccc(F)cc1 [Cpd 12, (7E)-1-(2,4-dichloro-phenyl)-7-(4-fluoro-benzylidene)-4,5,6,7-tetrahydro-1H-pyrazolo[4,3-c]pyridine-3-carboxylic acid piperidin-1-ylamide]",5%,0.1 µM,0.08 µM,
"COC(=O)N1C/C(=C\c2ccc(F)cc2)c2c(c(C(=O)N[C@H](C)C3CCCCC3)nn2-c2ccc(Cl)cc2Cl)C1 [Cpd 13, (7E)-3-[(1R)-1-cyclohexyl-ethylcarbamoyl]-1-(2,4-dichloro-phenyl)-7-(4-fluoro-benzylidene)-1,4,6,7-tetrahydro-pyrazolo[4,3-c]pyridine-5-carboxylic acid methyl ester]",,0.002 µM,0.01 µM,11%
"CC(=O)N1C/C(=C\c2ccc(F)cc2)c2c(c(C(=O)N[C@H](C)C3CCCCC3)nn2-c2ccc(Cl)cc2Cl)C1 [Cpd 14, (7E)-5-acetyl-1-(2,4-dichloro-phenyl)-7-(4-fluoro-benzylidene)-4,5,6,7-tetrahydro-1H-pyrazolo[4,3-c]pyridine-3-carboxylic acid [(1R)-1-cyclohexyl-ethyl]-amide]",16%,0.008 µM,0.004 µM,
"C[C@@H](NC(=O)c1nn(-c2ccc(Cl)cc2Cl)c2c1CNC/C2=C\c1ccc(F)cc1)c1ccccc1 [Cpd 15, (7E)-1-(2,4-dichloro-phenyl)-7-(4-fluoro-benzylidene)-4,5,6,7-tetrahydro-1H-pyrazolo[4,3-c]pyridine-3-carboxylic acid [(1R)-1-phenyl-ethyl]-amide]",23%,0.01 µM,0.01 µM,
"C[C@@H](NC(=O)c1nn(-c2ccc(Cl)cc2Cl)c2c1CN(C(=O)OCc1ccccc1)C/C2=C\c1ccc(F)cc1)c1ccccc1 [Cpd 16, (7E)-1-(2,4-dichloro-phenyl)-7-(4-fluoro-benzylidene)-3-[(1R)-1-phenyl-ethylcarbamoyl]-1,4,6,7-tetrahydro-pyrazolo[4,3-c]pyridine-5-carboxylic acid benzyl ester]",27%,0.02 µM,0.06 µM,
C[C@@H](NC(=O)c1nn(-c2ccc(Cl)cc2Cl)c2c1CN(S(C)(=O)=O)C/C2=C\c1ccc(F)cc1)c1ccccc1 [Cpd 17],36%,0.002 µM,0.006 µM,
Cc1ccc(S(=O)(=O)N2C/C(=C\c3ccc(F)cc3)c3c(c(C(=O)N[C@H](C)c4ccccc4)nn3-c3ccc(Cl)cc3Cl)C2)cc1 [Cpd 18],48%,0.01 µM,0.08 µM,
"CCNC(=O)N1C/C(=C\c2ccc(F)cc2)c2c(c(C(=O)N[C@H](C)c3ccccc3)nn2-c2ccc(Cl)cc2Cl)C1 [Cpd 19, (7E)-1-(2,4-dichloro-phenyl)-7-(4-fluoro-benzylidene)-1,4,6,7-tetrahydro-pyrazolo[4,3-c]pyridine-3,5-dicarboxylic acid 5-ethylamide 3-[(1R)-(1-phenyl-ethyl)-amide]]",10%,0.007 µM,0.005 µM,
"CC(NC(=O)c1nn(-c2ccc(Cl)cc2Cl)c2c1CN(C(=O)OC(C)(C)C)C/C2=C\c1ccc(F)cc1)c1ccccn1 (stereo not drawn) [Cpd 20, (7E)-1-(2,4-dichloro-phenyl)-7-(4-fluoro-benzylidene)-3-(1-pyridin-2-yl-ethylcarbamoyl)-1,4,6,7-tetrahydro-pyrazolo[4,3-c]pyridine-5-carboxylic acid tert-butyl ester]",14%,0.04 µM,0.02 µM,
"CC(NC(=O)c1nn(-c2ccc(Cl)cc2Cl)c2c1CNC/C2=C\c1ccc(F)cc1)c1ccccn1 (stereo not drawn) [Cpd 21, (7E)-1-(2,4-dichloro-phenyl)-7-(4-fluoro-benzylidene)-4,5,6,7-tetrahydro-1H-pyrazolo[4,3-c]pyridine-3-carboxylic acid (1-pyridin-2-yl-ethyl)-amide]",5%,0.05 µM,0.07 µM,
"CC(=O)N1C/C(=C\c2ccc(F)cc2)c2c(c(C(=O)NC(C)c3ccccn3)nn2-c2ccc(Cl)cc2Cl)C1 (stereo not drawn) [Cpd 22, (7E)-5-acetyl-1-(2,4-dichloro-phenyl)-7-(4-fluoro-benzylidene)-4,5,6,7-tetrahydro-1H-pyrazolo[4,3-c]pyridine-3-carboxylic acid (1-pyridin-2-yl-ethyl)-amide]",2%,0.03 µM,0.004 µM,
"COC(=O)N1C/C(=C\c2ccc(F)cc2)c2c(c(C(=O)NC(C)c3ccccn3)nn2-c2ccc(Cl)cc2Cl)C1 (stereo not drawn) [Cpd 23, (7E)-1-(2,4-dichloro-phenyl)-7-(4-fluoro-benzylidene)-3-(1-pyridin-2-yl-ethylcarbamoyl)-1,4,6,7-tetrahydro-pyrazolo[4,3-c]pyridine-5-carboxylic acid methyl ester]",18%,0.01 µM,0.004 µM,
"CCNC(=O)N1C/C(=C\c2ccc(F)cc2)c2c(c(C(=O)NC(C)c3ccccn3)nn2-c2ccc(Cl)cc2Cl)C1 (stereo not drawn) [Cpd 24, (7E)-1-(2,4-dichloro-phenyl)-7-(4-fluoro-benzylidene)-1,4,6,7-tetrahydro-pyrazolo[4,3-c]pyridine-3,5-dicarboxylic acid 5-ethylamide 3-[(1-pyridin-2-yl-ethyl)-amide]]",6%,0.02 µM,0.02 µM,
"CC(NC(=O)c1nn(-c2ccc(Cl)cc2Cl)c2c1CN(C(=O)OCc1ccccc1)C/C2=C\c1ccc(F)cc1)c1ccccn1 (stereo not drawn) [Cpd 25, (7E)-1-(2,4-dichloro-phenyl)-7-(4-fluoro-benzylidene)-3-(1-pyridin-2-yl-ethylcarbamoyl)-1,4,6,7-tetrahydro-pyrazolo[4,3-c]pyridine-5-carboxylic acid benzyl ester]",17%,0.05 µM,0.09 µM,
"Cc1ccc(S(=O)(=O)N2C/C(=C\c3ccc(F)cc3)c3c(c(C(=O)NC(C)c4ccccn4)nn3-c3ccc(Cl)cc3Cl)C2)cc1 (stereo not drawn) [Cpd 26, (7E)-1-(2,4-dichloro-phenyl)-7-(4-fluoro-benzylidene)-5-(toluene-4-sulfonyl)-4,5,6,7-tetrahydro-1H-pyrazolo[4,3-c]pyridine-3-carboxylic acid (1-pyridin-2-yl-ethyl)-amide]",24%,0.03 µM,0.02 µM,
"CC(NC(=O)c1nn(-c2ccc(Cl)cc2Cl)c2c1CN(S(C)(=O)=O)C/C2=C\c1ccc(F)cc1)c1ccccn1 (stereo not drawn) [Cpd 27, (7E)-1-(2,4-dichloro-phenyl)-7-(4-fluoro-benzylidene)-5-methanesulfonyl-4,5,6,7-tetrahydro-1H-pyrazolo[4,3-c]pyridine-3-carboxylic acid (1-pyridin-2-yl-ethyl)-amide]",16%,0.005 µM,0.006 µM,
